Legend:
[1] = Thermogravimetric analysis (TGA) of polymers and nanoparticle systems; format: physicochemical
Experimental: The thermogravimetric analysis (TGA) was carried out under N2 atmosphere in TGA Q500 (TA) equipment between 25 and 600° C. with a heating rate of 10° C./min.
The products were characterized by ATR-FTIR (4000 to 600 cm−1), TGA (25 to 600° C. under nitrogen atmosphere at 10° C./min) and DSC (the scan was carried out at a constant rate of 10° C./min, with a N2 flow of 20 ml/min, with temperatures in the range of −20 to 180° C.) to determine the glass transition temperature of the NP. For the calculation of the Tg, the temperature at which half of the difference in specific heat between the vitreous amorphous and elastomer amorphous states is reached is taken, that is, Tg=½ ΔCp. This point corresponds to the inflection point of the change in slope in the thermogram of the second scan.

BaF32 cells = experiment: BaF32 proliferation assay; format: cell-based
Experimental: The measurements of biological activity of the free and encapsulated bemiparin were carried out by cell proliferation assay. For this, BaF32 cells were used, which are a type of lymphocyte B, the cell signalling of which is mediated by the formation of a complex between the bemiparin, the FGF-2 and its corresponding FGFR1c receptor on the cell surface.
Bemiparin forms a ternary complex (FIG. 27) with the fibroblast growth factor (FGF-2) and its corresponding specific membrane receptor (FGFR1c) thus increasing the cellular signalling process corresponding to the proliferation process (Dillen, K., J. Vandervoort, G. Van den Mooter, and A. Ludwig. 2006. Evaluation of ciprofloxacin-loaded Eudragit® RS100 or RL100/PLGA nanoparticles. International Journal of Pharmaceutics 314 (1): 72-82; Eto, T. 2001. A review of the biological properties and clinical implications of adrenomedullin and proadrenomedullin N-terminal 20 peptide (PAMP), hypotensive and vasodilating peptides. Peptides 22 (11): 1693-1711). Given this property, an experiment was designed to verify that the encapsulated bemiparin maintains its biological activity. For this BaF32 cells were used, which are a type of lymphocyte B, the cell signalling of which is modulated by a by a specific bond between the FGF-2 and its corresponding FGFR1c receptor on the cell surface.

[2] = donated by ROVI pharmaceutical laboratories; cited from earlier work

Q: For bemiparin, which “T10% (temperature at which 10% of the system has been degraded)” value [1] is on record?
A: 120 °C

Q: What about the “effect on cell proliferation / activity of the FGF-2” value (BaF32 cells; FGF-2, FGFR1c) of the same substance?
A: promoting cell proliferation

Q: And the “dependence of the cellular response on the concentration of bemiparin” value (BaF32 cells; different concentrations of bemiparin)?
A: independent from the concentration of bemiparin used

Q: What about the “activity of bemiparin as supplied” value [2] of the same substance?
A: 111.3 IU/mg

— US20160074553A1, “DRESSING FOR COMPROMISED WOUND HEALING” (CONSEJO SUPERIOR DE INVESTIGACIONES CIENTIFICAS (CSIC), priority 2012, published 2016)
